The text below walks through data of patent US20230099293A1, “OGA INHIBITOR COMPOUNDS” (priority 2019, published 2023).

Data set [1] has as its target T1, recombinant human Meningioma Expressed Antigen 5 (MGEA5), also referred to as O-GlcNAcase (OGA) (Homo sapiens, UniProt O60502).
T1 construct: Full length OGA enzyme was purchased at OriGene (cat #TP322411); purchased OriGene TP322411
T1 sequence (O60502 1-916): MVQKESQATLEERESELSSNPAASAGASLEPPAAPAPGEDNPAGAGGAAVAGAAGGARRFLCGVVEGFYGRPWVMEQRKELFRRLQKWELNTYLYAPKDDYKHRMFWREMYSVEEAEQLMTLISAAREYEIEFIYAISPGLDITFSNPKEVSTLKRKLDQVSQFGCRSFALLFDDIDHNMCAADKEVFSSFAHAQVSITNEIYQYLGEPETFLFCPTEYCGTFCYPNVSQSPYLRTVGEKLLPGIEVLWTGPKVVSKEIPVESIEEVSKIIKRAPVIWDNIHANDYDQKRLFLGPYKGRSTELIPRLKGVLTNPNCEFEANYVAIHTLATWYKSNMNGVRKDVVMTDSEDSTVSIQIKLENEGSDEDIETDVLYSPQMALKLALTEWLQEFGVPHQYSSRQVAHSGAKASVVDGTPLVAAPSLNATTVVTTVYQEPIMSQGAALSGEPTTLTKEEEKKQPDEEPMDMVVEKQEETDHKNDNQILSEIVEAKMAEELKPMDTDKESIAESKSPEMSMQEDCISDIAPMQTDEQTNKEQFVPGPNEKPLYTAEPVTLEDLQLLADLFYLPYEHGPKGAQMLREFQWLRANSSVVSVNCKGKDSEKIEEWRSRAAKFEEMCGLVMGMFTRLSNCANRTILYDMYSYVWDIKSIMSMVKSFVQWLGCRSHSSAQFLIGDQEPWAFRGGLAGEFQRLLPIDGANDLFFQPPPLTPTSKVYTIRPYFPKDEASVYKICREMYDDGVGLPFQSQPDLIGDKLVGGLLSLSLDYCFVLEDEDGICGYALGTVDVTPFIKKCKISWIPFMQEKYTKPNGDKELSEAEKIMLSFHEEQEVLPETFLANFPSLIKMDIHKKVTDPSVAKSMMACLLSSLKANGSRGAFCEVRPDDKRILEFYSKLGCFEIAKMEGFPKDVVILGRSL
In words: OGA biochemical assay (inhibition of FM-GlcNAc hydrolysis, fluorescence). The conditions noted are these: for IC50: Enzymatic hOGA; for Emax: read-out: Enzymatic Emax (%). The method, boiled down: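 Full-length recombinant OGA at 2 nM with 100 uM FM-GlcNAc in 200 mM citrate/phosphate buffer, 0.005% Tween-20. IC50 and Hill coefficient from curve fit between no-inhibitor and saturating standard-inhibitor controls.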

For the next data set, the target named is T2, hOGA (Homo sapiens, UniProt O60502).
T2 construct: endogenous in cells; host or cells: HEK293 cells inducible for P301L mutant human Tau (isoform 2N4R)
T2 sequence (O60502 1-916): T1 sequence (O60502 1-916)
In words: OGA cellular assay (ICC detection of O-GlcNAcylated proteins in HEK293 cells inducible for P301L mutant human Tau). In kind it is cell-based. Details: Emax: dose or concentration left out as unconfirmed. The conditions noted are these: for EC50: Cellular hOGA; for Emax: HEK293, read-out: Cellular Emax (%). An outline of the steps:
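HEK293 cells inducible for P301L Tau (2N4R), seeded in low-glucose medium, treated with compound for 6 h at 0.2% DMSO. After PFA fixation, O-GlcNAcylated proteins stained with CTD110.6 and imaged (488 nm intensity, 9 fields/well); Hoechst nuclei count for toxicity. IC50 by non-linear regression, Thiamet-G 200 μM as maximum.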

Setting [2] is: pIC50, Table 5, full length OGA 2 nM, FM-GlcNAc 100 uM, 6 h at room temperature.
Where [3] appears, read: pEC50, Table 5, HEK293 P301L Tau cells, 6 hours incubation, O-GlcNAcylation readout.

What is called IC50 is the point on the concentration scale where inhibition reaches its midpoint. The term Emax denotes the size of the effect at its maximum, as opposed to the concentration needed. The EC50 is the concentration at which the effect is half-maximal. One may read the melting point as the temperature, or range, at which the solid turns liquid.

Each structure is given as a SMILES string. A value given as a limit tells only on which side of the number the result lay.

Compound `Cc1cc(C(F)(F)F)cc(C)c1Nc1nccc2c1ncn2-c1ccc(F)cn1` [Compound 60, N-(2,6-Dimethyl-4-(trifluoromethyl)phenyl)-1-(5-fluoropyridin-2-yl)-1H-imidazo[4,5-c]pyridin-4-amine] had a melting point of 186.5 °C. For the same compound, the IC50 in data set [1] (setting [2]) is 117 nM. In data set [1], the Emax turned out to be 100%. On hOGA (setting [3]), this compound had an EC50 of 933 nM. At hOGA, the Emax stood at 44%.

With `CN(C)C(=O)Cn1cnc2c(Nc3c(Cl)cc(F)cc3Cl)nccc21` [Compound 21], the melting point is 243.4 °C. The IC50 in data set [1] (setting [2]) is 30.9 nM. The Emax in data set [1] is 95%. The same compound had an EC50 at hOGA (setting [3]) of 123 nM. Also, the Emax at hOGA stood at 69%.

The compound `Cc1cc(F)c(F)c(C)c1Nc1nccc2c1ncn2CC(=O)N(C)C` [Compound 78] displayed a melting point of 198.1 °C. Further, the IC50 in data set [1] (pIC50, second table, averaged values over several runs, obtained after recalibration of the equipment) was 21.4 nM. At hOGA (pEC50, second table, averaged values over several runs, obtained after recalibration of the equipment), this compound had an EC50 of 427 nM.

Compound `Cc1cc(-c2cnn(C)c2)cc(C(C)C)c1Nc1nccc2c1ncn2CC(=O)N(C)C` [Compound 22] had a melting point of 234.4 °C. Also, in data set [1] (setting [2]), the IC50 is 41.7 nM. Further, the Emax in data set [1] was 98%. Further, on hOGA (setting [3]), the EC50 is > 1000 nM. Also, the Emax at hOGA was found to be 31%.

`CN(C)C(=O)Cn1cnc2c(Nc3ccc(F)cc3C(F)(F)F)nccc21` [Compound 29] came in with a melting point of 246.7 °C. In addition, the IC50 in data set [1] (setting [2]) is 1000 nM. Moreover, the Emax in data set [1] is 100%. In addition, the EC50 on hOGA (setting [3]) was > 200 nM. Moreover, the Emax at hOGA is 2%.

Compound `Cc1c(C(F)(F)F)nn(C)c1Nc1nccc2c1ncn2CC(=O)N(C)C` [Compound 39] returned a melting point of 240 °C. Moreover, in data set [1] (setting [2]), the IC50 is 631 nM. In data set [1], the Emax worked out at 94%. Besides, the EC50 at hOGA (setting [3]) was > 1000 nM. Besides, at hOGA, the maximum response (Emax) came out at 12%.

As to `Cc1cc(C)c(Nc2nccc3c2ncn3CC(=O)N(C)C)c(C)c1` [Compound 19], the melting point is 270.2 °C. Also, in data set [1] (setting [2]), the IC50 was 20 nM. In addition, in data set [1], the Emax was found to be 98%. The same compound showed an EC50 on hOGA (setting [3]) of 537 nM. Moreover, at hOGA, the Emax turned out to be 62%.

`Cc1cc(C(F)(F)F)cc(C)c1Nc1nccc2c1ncn2Cc1ccon1` [Compound 59, N-(2,6-dimethyl-4-(trifluoromethyl)phenyl)-1-(isoxazole-3-ylmethyl)-1H-imidazo[4,5-c]pyridine-4-amine] returned a melting point of 154.7 °C. Moreover, in data set [1] (setting [2]), the IC50 is 9.12 nM. For the same compound, the maximal response (Emax) in data set [1] turned out to be 101%. On hOGA, the Emax is 72%.
